This test deals with hOT7T175 (Homo sapiens, UniProt Q969F8, L364H). Briefly: Intracellular Ca ion level-increasing activity using FLIPR in hOT7T175/CHO. Further details: expressed in transfected cells; host or cells: CHO/dhfr- cells, obtained from ATCC. The following applies: relative, Metastin (1-54) = 1. It counts as cell-based. On the procedure: Assay for Intracellular Ca Ion Level-Increasing Activity Using Flipr
In accordance with the method described in JPA 2000-312590, the intracellular Ca ion level-increasing activity was measured using FLIPR.
The stable expression cell line hOT7T175 was acquired by transduction of expression plasmid pAK-rOT175 for animal cells into CHO/dhff cells, using CellPhect Transfection Kit (Amersham Pharmacia Biotech, Inc.). First, 240 μL of Buffer A (attached to CellPhect Transfection Kit) was added to 9.6 μg of plasmid DNA dissolved in 240 μl of distilled water, followed by stirring. After settling the mixture for 10 minutes, 480 μL of Buffer B (attached to CellPhect Transfection Kit) was added to the mixture, which was vigorously stirred to form DNA-containing liposomes. Then, 4×10^5 CHO/dhff cells (obtained from ATCC) were inoculated on a 60 mm Petri dish. […] After culturing the cells at 37° C. for 6 hours in 5% carbon dioxide gas, the cells were washed twice with serum-free Ham's F-12 medium and 3 ml of 15% glycerol was added to the cells in the Petri dish to treat for 2 minutes. The cells were again washed twice with serum-free Ham's F-12 medium followed by incubation in Ham's F-12 medium supplemented with 10% fetal bovine serum at 37° C. for 15 hours in 5% carbon dioxide gas. The cells were dispersed by trypsin treatment and recovered from the Petri dish. The recovered cells were inoculated on a 6-well plate in 1.25×10^4 cells/well and incubation was initiated at 37° C. in Dulbecco's modified Eagle medium (DMEM) medium (Nissui Seiyaku Co., Ltd.) containing 10% dialyzed fetal bovine serum (JRH BIOSCIENCES, Inc.) under 5% carbon dioxide gas. […] The medium was exchanged on Days 1 and 2 to remove the cells died.
The intracellular Ca ion level-increasing activity of the synthetic peptide in hOT7T175/CHO was determined using FLIPR (Molecular Devices, Inc.).
hOT7T175/CHO was subcultured in DMEM supplemented with 10% dialyzed fetal bovine serum (hereinafter abbreviated as dFBS) and provided for the experiment (hereinafter abbreviated as 10% dFBS/DMEM). The hOT7T175/CHO was suspended in 10% dFBS-DMEM in 15×10^4 cells/ml. The suspension was inoculated on a 96-well plate for FLIPR (Black Plate Clear Bottom, Coster, Inc.) at 200 μL each (3.0×10^4 cells/200 μL/well), followed by incubation at 37° C. overnight in a 5% CO2 incubator (hereinafter simply referred to as the cell plate). Then, 21 ml of HANKS/HBSS (9.8 g of HANKS, 0.35 g of sodium hydrogencarbonate, 20 ml of 1M HEPES; after adjusting the pH to 7.4 with 1N sodium hydroxide, the mixture was sterilized by filtration), 210 μl of 250 mM Probenecid and […] of fetal bovine serum (FBS) were mixed (HANKS/HBSS-Probenecid-FBS).
Furthermore, 2 vials of Fluo3-AM (50 μug/vial) were dissolved in 21 μL of dimethylsulfoxide and 21 μL of 20% Pluronic acid. The resulting solution was added to and mixed with 10 ml of HANKS/HBSS-Probenecid-FBS described above. After the culture medium was removed, the mixture was dispensed onto the cell plate in 100 μL each/well, followed by incubation at 37° C. for an hour in a 5% CO2 incubator (pigment loading). The peptide was dissolved in dimethylsulfoxide in 1×10^−3 M. The peptide solution was diluted with HANKS/HBSS containing 2.5 mM Probenecid, 0.2% BSA and 0.1% CHAPS.

Molecules are shown by their SMILES. Square brackets hold non-standard residues; d marks the D form. Peptide text beside a SMILES is read from it. Phe(3-Cl) = N[C@@H](Cc1cccc(Cl)c1)C(=O)O; Phe(4-Cl) = N[C@@H](Cc1ccc(Cl)cc1)C(=O)O; Phe(2-Cl) = N[C@@H](Cc1ccccc1Cl)C(=O)O; 2Nal = N[C@@H](Cc1ccc2ccccc2c1)C(=O)O; Arg(Me) = CNC(=N)NCCC[C@H](N)C(=O)O; azaGly = NNC(=O)O

Data on 14 compounds can be found in US8361968B2 (Takeda Pharmaceutical Company Limited, priority 2002, dated 2013).

hOT7T175, sequence (Q969F8 whole entry L364H): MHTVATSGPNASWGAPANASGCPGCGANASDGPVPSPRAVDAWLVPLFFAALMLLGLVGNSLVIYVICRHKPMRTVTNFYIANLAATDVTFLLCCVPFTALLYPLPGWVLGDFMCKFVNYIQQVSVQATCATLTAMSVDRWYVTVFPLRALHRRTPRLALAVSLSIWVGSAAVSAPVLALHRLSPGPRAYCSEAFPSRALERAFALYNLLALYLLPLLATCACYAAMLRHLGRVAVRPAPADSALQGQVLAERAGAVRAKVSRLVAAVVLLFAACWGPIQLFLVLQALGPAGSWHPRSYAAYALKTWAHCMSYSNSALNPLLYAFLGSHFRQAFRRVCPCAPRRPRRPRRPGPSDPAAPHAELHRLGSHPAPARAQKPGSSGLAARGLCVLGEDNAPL

Consider `CNC(=N)NCCC[C@H](NC(=O)[C@H](CC(C)C)NC(=O)CNC(=O)[C@H](Cc1ccccc1)NC(=O)[C@H](CO)NC(=O)[C@H](CC(N)=O)NC(=O)[C@H](Cc1c[nH]c2ccccc12)NC(=O)[C@@H](NC(=O)[C@H](N)Cc1ccc(O)cc1)[C@@H](C)O)C(=O)N[C@@H](Cc1ccccc1)C(N)=O` [Compound No. 215] (H-[dY]TWNSFGL[Arg(Me)]F-NH2; N-terminus assumed), for which the “Specific Activity (intracellular Ca ion level-increasing activity)” value is on record as 10. The value for `CNC(=N)NCCC[C@H](NC(=O)[C@H](CC(C)C)NC(=O)CNC(=O)[C@H](Cc1ccccc1)NC(=O)[C@H](CO)NC(=O)[C@H](CC(N)=O)NC(=O)[C@H](Cc1c[nH]c2ccccc12)NC(=O)[C@H](N)CC(N)=O)C(=O)N[C@@H](Cc1ccccc1)C(N)=O` [Compound No. 216] (H-[dN]WNSFGL[Arg(Me)]F-NH2; N-terminus assumed) was 1; that for `CNC(=N)NCCC[C@H](NC(=O)[C@H](CC(C)C)NC(=O)CNC(=O)[C@H](Cc1ccccc1)NC(=O)[C@H](CO)NC(=O)[C@H](CC(N)=O)NC(=O)[C@H](Cc1c[nH]c2ccccc12)NC(=O)[C@H](N)Cc1ccc(O)cc1)C(=O)N[C@@H](Cc1ccccc1)C(N)=O` [Compound No. 217] (H-[dY]WNSFGL[Arg(Me)]F-NH2) was 20. The value for `CNC(=N)NCCC[C@H](NC(=O)[C@H](CC(C)C)NC(=O)CNC(=O)[C@H](Cc1ccccc1)NC(=O)[C@H](CO)NC(=O)[C@H](CC(N)=O)NC(=O)[C@@H](NC(=O)[C@H](CC(N)=O)NC(=O)[C@H](N)Cc1ccc(O)cc1)C(C)C)C(=O)N[C@@H](Cc1ccccc1)C(N)=O` [Compound No. 229] (H-[dY]NVNSFGL[Arg(Me)]F-NH2) was 1; that for `CNC(=N)NCCC[C@H](NC(=O)[C@H](CC(C)C)NC(=O)CNC(=O)[C@H](Cc1ccccc1)NC(=O)[C@H](CO)NC(=O)[C@H](CC(N)=O)NC(=O)[C@H](Cc1c[nH]c2ccccc12)NC(=O)[C@@H](CC(N)=O)NC(=O)[C@H](N)Cc1ccc(O)cc1)C(=O)N[C@@H](Cc1ccccc1)C(N)=O` [Compound No. 230] was 10; that for `CNC(=N)NCCC[C@H](NC(=O)[C@H](CC(C)C)NC(=O)CNC(=O)[C@H](Cc1ccccc1)NC(=O)[C@H](CO)NC(=O)[C@H](CC(N)=O)NC(=O)[C@@H](Cc1c[nH]c2ccccc12)NC(=O)[C@@H](CC(N)=O)NC(=O)[C@H](N)Cc1ccc(O)cc1)C(=O)N[C@@H](Cc1ccccc1)C(N)=O` [Compound No. 231, D-Tyr-D-Asn-D-Trp-Asn-Ser-Phe-Gly-Leu-Arg(Me)-Phe-NH2] was 1. As for `CNC(=N)NCCC[C@H](NC(=O)[C@H](CC(C)C)NC(=O)NNC(=O)[C@H](Cc1ccccc1)NC(=O)[C@H](CO)NC(=O)[C@H](CC(N)=O)NC(=O)[C@@H](NC(=O)[C@H](CC(N)=O)NC(=O)[C@H](N)Cc1ccc(O)cc1)C(C)C)C(=O)N[C@@H](Cc1ccccc1)C(N)=O` [Compound No. 234, D-Tyr-Asn-Val-Asn-Ser-Phe-AzaGly-Leu-Arg(Me)-Phe-NH2] (H-[dY]NVNSF[azaGly]L[Arg(Me)]F-NH2; N-terminus assumed), the “Specific Activity (intracellular Ca ion level-increasing activity)” value is given as 1. In the case of `CNC(=N)NCCC[C@H](NC(=O)[C@H](CC(C)C)NC(=O)NNC(=O)[C@H](Cc1ccccc1)NC(=O)[C@H](CO)NC(=O)[C@H](CC(N)=O)NC(=O)[C@@H](NC(=O)[C@H](N)Cc1ccc(O)cc1)[C@@H](C)O)C(=O)N[C@@H](Cc1ccccc1)C(N)=O` [Compound No. 241, D-Tyr-Thr-Asn-Ser-Phe-AzaGly-Leu-Arg(Me)-Phe-NH2] (H-[dY]TNSF[azaGly]L[Arg(Me)]F-NH2) it was 1; in that of `CNC(=N)NCCC[C@H](NC(=O)[C@H](CC(C)C)NC(=O)NNC(=O)[C@H](Cc1ccccc1)NC(=O)[C@H](CO)NC(=O)[C@H](CC(N)=O)NC(=O)[C@@H](Cc1c[nH]c2ccccc12)NC(=O)[C@H](N)Cc1ccc(O)cc1)C(=O)N[C@@H](Cc1ccccc1)C(N)=O` [Compound No. 242, D-Tyr-D-Trp-Asn-Ser-Phe-AzaGly-Leu-Arg(Me)-Phe-NH2] (H-[dY][dW]NSF[azaGly]L[Arg(Me)]F-NH2), 2; in that of `CNC(=N)NCCC[C@H](NC(=O)[C@H](CC(C)C)NC(=O)NNC(=O)[C@H](Cc1ccccc1)NC(=O)[C@H](CO)NC(=O)[C@H](CC(N)=O)NC(=O)[C@H](Cc1ccccc1)NC(=O)[C@H](CC(N)=O)NC(=O)[C@H](N)Cc1ccc(O)cc1)C(=O)N[C@@H](Cc1ccccc1)C(N)=O` [Compound No. 244, D-Tyr-Asn-Phe-Asn-Ser-Phe-AzaGly-Leu-Arg(Me)-Phe-NH2] (H-[dY]NFNSF[azaGly]L[Arg(Me)]F-NH2; N-terminus assumed), 1. As to `CNC(=N)NCCC[C@H](NC(=O)[C@H](CC(C)C)NC(=O)NNC(=O)[C@H](Cc1ccccc1)NC(=O)[C@H](CO)NC(=O)[C@H](CC(N)=O)NC(=O)[C@H](Cc1ccc2ccccc2c1)NC(=O)[C@H](CC(N)=O)NC(=O)[C@H](N)Cc1ccc(O)cc1)C(=O)N[C@@H](Cc1ccccc1)C(N)=O` [Compound No. 246, D-Tyr-Asn-Nal(2)-Asn-Ser-Phe-AzaGly-Leu-Arg(Me)-Phe-NH2] (H-[dY]N[2Nal]NSF[azaGly]L[Arg(Me)]F-NH2), the “Specific Activity (intracellular Ca ion level-increasing activity)” value turned out to be 2. The value for `CNC(=N)NCCC[C@H](NC(=O)[C@H](CC(C)C)NC(=O)NNC(=O)[C@H](Cc1ccccc1)NC(=O)[C@H](CO)NC(=O)[C@H](CC(N)=O)NC(=O)[C@H](Cc1ccccc1Cl)NC(=O)[C@H](CC(N)=O)NC(=O)[C@H](N)Cc1ccc(O)cc1)C(=O)N[C@@H](Cc1ccccc1)C(N)=O` [Compound No. 247, D-Tyr-Asn-Phe(2Cl)-Asn-Ser-Phe-AzaGly-Leu-Arg(Me)-Phe-NH2] (H-[dY]N[Phe(2-Cl)]NSF[azaGly]L[Arg(Me)]F-NH2) was 1; that for `CNC(=N)NCCC[C@H](NC(=O)[C@H](CC(C)C)NC(=O)NNC(=O)[C@H](Cc1ccccc1)NC(=O)[C@H](CO)NC(=O)[C@H](CC(N)=O)NC(=O)[C@H](Cc1cccc(Cl)c1)NC(=O)[C@H](CC(N)=O)NC(=O)[C@H](N)Cc1ccc(O)cc1)C(=O)N[C@@H](Cc1ccccc1)C(N)=O` [Compound No. 248, D-Tyr-Asn-Phe(3Cl)-Asn-Ser-Phe-AzaGly-Leu-Arg(Me)-Phe-NH2] (H-[dY]N[Phe(3-Cl)]NSF[azaGly]L[Arg(Me)]F-NH2) was 2. Regarding `CNC(=N)NCCC[C@H](NC(=O)[C@H](CC(C)C)NC(=O)NNC(=O)[C@H](Cc1ccccc1)NC(=O)[C@H](CO)NC(=O)[C@H](CC(N)=O)NC(=O)[C@H](Cc1ccc(Cl)cc1)NC(=O)[C@H](CC(N)=O)NC(=O)[C@H](N)Cc1ccc(O)cc1)C(=O)N[C@@H](Cc1ccccc1)C(N)=O` [Compound No. 249, D-Tyr-Asn-Phe(4Cl)-Asn-Ser-Phe-AzaGly-Leu-Arg(Me)-Phe-NH2] (H-[dY]N[Phe(4-Cl)]NSF[azaGly]L[Arg(Me)]F-NH2), the “Specific Activity (intracellular Ca ion level-increasing activity)” value was 1.
